pIC50: −log10 of the molar value. ≈ marks a conversion by molar mass, not a printed value.
Legend:
[1] = target: T1, Mitogen-activated protein kinase kinase kinase 12 (Homo sapiens, UniProt Q12852); assay: Inhibition of doxycycline-inducible human DLK transfected in HEK293 cells assessed as reduction in c-Jun phosphorylation at Ser63 residue incubated for 5 hrs; format: cell-based
T1 sequence (Q12852 whole entry): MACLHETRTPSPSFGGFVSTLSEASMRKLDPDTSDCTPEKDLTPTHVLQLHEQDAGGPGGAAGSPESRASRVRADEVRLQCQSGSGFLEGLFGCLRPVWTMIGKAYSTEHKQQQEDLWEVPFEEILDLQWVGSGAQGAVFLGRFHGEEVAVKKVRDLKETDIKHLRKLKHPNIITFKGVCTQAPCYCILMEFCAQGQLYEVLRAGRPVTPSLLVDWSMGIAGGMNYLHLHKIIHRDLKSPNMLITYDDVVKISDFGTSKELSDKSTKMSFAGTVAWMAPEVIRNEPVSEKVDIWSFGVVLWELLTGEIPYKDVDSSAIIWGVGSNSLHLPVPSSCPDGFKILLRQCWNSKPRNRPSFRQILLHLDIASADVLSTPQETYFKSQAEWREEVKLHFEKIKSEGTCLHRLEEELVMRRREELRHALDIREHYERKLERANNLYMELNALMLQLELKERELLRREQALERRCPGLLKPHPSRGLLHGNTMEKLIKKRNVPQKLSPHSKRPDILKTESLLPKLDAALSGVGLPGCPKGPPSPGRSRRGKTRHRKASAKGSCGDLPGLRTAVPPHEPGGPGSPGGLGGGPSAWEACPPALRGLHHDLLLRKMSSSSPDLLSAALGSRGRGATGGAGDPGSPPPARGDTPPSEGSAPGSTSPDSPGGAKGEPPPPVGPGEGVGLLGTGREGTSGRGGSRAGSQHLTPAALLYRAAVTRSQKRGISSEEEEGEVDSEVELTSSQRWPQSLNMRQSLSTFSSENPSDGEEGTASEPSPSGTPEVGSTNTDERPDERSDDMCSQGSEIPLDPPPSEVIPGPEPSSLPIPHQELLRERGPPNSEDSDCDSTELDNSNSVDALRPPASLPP

[2] = Metabolic stability in rat liver microsomes assessed as intrinsic clearance at 1 uM in presence of NADPH regenerating system measured for 45 mins by LC-MS/MS analysis; format: ADME, Microsome; settings: read-out: CLH
[3] = Ratio of unbound drug concentration in C57BL/6 mouse brain to plasma at 0.3 mg/kg, iv measured for 24 hrs by LC-MS/MS analysis; format: ADME, organism-based; settings: brain and plasma, read-out: K(p,uu,brain)
[4] = Half life in C57BL/6 mouse at 0.3 mg/kg, iv administered via tail vein and measured for 24 hrs by LC-MS/MS analysis; format: ADME, organism-based; settings: in vivo
[5] = Cmax in C57BL/6 mouse at 10 mg/kg administered via oral gavage and measured for 24 hrs by LC-MS/MS analysis; format: ADME, organism-based; design: dose 10 mg/kg, time 24 hrs, route po; settings: in vivo
[6] = AUClast in C57BL/6 mouse at 10 mg/kg administered via oral gavage and measured for 24 hrs by LC-MS/MS analysis; format: ADME, organism-based; design: time 24 hrs, dose 10 mg/kg, route po; settings: in vivo
[7] = Thermodynamic aqueous solubility of compound in FeSSIF at pH 5 incubated for 1 hr under shaking condition by LC-MS/MS analysis; format: physicochemical; settings: read-out: Therm_solubility
[8] = Thermodynamic aqueous solubility of compound in FaSSIF at pH 6.5 incubated for 1 hr under shaking condition by LC-MS/MS analysis; format: physicochemical; settings: read-out: Therm_solubility
[9] = Permeability in wild type MDCK cells across apical to basolateral side at 5 uM incubated for 90 mins by LC-MS/MS analysis; format: ADME, cell-based, Canis lupus familiaris; settings: dog, read-out: permeability
[10] = Permeability in MDCK-MDR1 cells across apical to basolateral side at 5 uM incubated for 90 mins by LC-MS/MS analysis; format: ADME, cell-based, Canis lupus familiaris; settings: dog, read-out: permeability
[11] = Permeability in MDCK-MDR1 cells across basolateral to apical side at 5 uM incubated for 90 mins by LC-MS/MS analysis; format: ADME, cell-based, Canis lupus familiaris; settings: dog, read-out: permeability
Cytochrome P450 2D6 = Cytochrome P450 2D6 (Homo sapiens, UniProt P10635); assay: Inhibition of CYP2D6 in human liver microsomes using bufuralol as substrate incubated for 10 mins in presence of NADPH by LC-MS/MS analysis; format: ADME, Microsome
Cytochrome P450 2C19 = Cytochrome P450 2C19 (Homo sapiens, UniProt P33261); assay: Inhibition of CYP2C19 in human liver microsomes using S-mephenytoin as substrate incubated for 45 mins in presence of NADPH by LC-MS/MS analysis; format: ADME, Microsome
[12] = Metabolic stability in monkey liver microsomes assessed as intrinsic clearance at 1 uM in presence of NADPH regenerating system measured for 45 mins by LC-MS/MS analysis; format: ADME, Macaca mulatta, Microsome; settings: rhesus monkey, read-out: CLH
[13] = Metabolic stability in monkey hepatocytes assessed as intrinsic clearance at 2 uM measured for 120 mins by LC-MS analysis; format: ADME, cell-based, Macaca mulatta, Hepatocyte; settings: rhesus monkey, read-out: CLH
[14] = Metabolic stability in human hepatocytes assessed as intrinsic clearance at 2 uM measured for 120 mins by LC-MS analysis; format: ADME, cell-based, Hepatocyte; settings: read-out: CLH
[15] = Plasma protein binding in mouse at 5 uM incubated for 5 hrs by rapid equilibrium dialysis method; format: ADME, cell-free; settings: read-out: PPB (converted)
[16] = Plasma protein binding in rat at 5 uM incubated for 5 hrs by rapid equilibrium dialysis method; format: ADME, cell-free; settings: read-out: PPB (converted)
[17] = Plasma protein binding in dog at 5 uM incubated for 5 hrs by rapid equilibrium dialysis method; format: ADME, cell-free, Canis lupus familiaris; settings: read-out: PPB (converted)
[18] = Protein binding in mouse brain homogenate incubated for 5 hrs by UPLC-MS/MS analysis; format: ADME, tissue-based; settings: read-out: PB (converted)
[19] = Volume of distribution at steady state in Sprague-Dawley rat at 3 mg/kg, po or 1 mg/kg, iv measured for 24 hrs by LC-MS/MS analysis; format: ADME, organism-based; settings: in vivo
[20] = Half life in Sprague-Dawley rat at 3 mg/kg, po or 1 mg/kg, iv measured for 24 hrs by LC-MS/MS analysis; format: ADME, organism-based; settings: in vivo
[21] = Bioavailability in Beagle dog at 1 mg/kg, po or 0.3 mg/kg, iv measured for 24 hrs by LC-MS/MS analysis; format: ADME, organism-based, Canis lupus familiaris; settings: in vivo
[22] = Cmax in Beagle dog at 1 mg/kg, po or 0.3 mg/kg, iv measured for 24 hrs by LC-MS/MS analysis; format: ADME, organism-based, Canis lupus familiaris; design: time 24 hrs, dose 1 mg/kg, route po; settings: in vivo
[23] = AUClast in Beagle dog at 1 mg/kg, po or 0.3 mg/kg, iv measured for 24 hrs by LC-MS/MS analysis; format: ADME, organism-based, Canis lupus familiaris; design: time 24 hrs, dose 1 mg/kg, route po; settings: in vivo
[24] = Bioavailability in cynomolgus monkey at 1 mg/kg, po or 0.3 mg/kg, iv measured for 24 hrs by LC-MS/MS analysis; format: ADME, organism-based, Macaca fascicularis; settings: in vivo
[25] = Cmax in cynomolgus monkey at 1 mg/kg, po or 0.3 mg/kg, iv measured for 24 hrs by LC-MS/MS analysis; format: ADME, organism-based, Macaca fascicularis; design: dose 1 mg/kg, time 24 hrs, route po; settings: in vivo
[26] = Toxicity in rat measured after 14 days by IND-enabling study; settings: in vivo, 336 h, time 14 day
[27] = Toxicity in monkey measured after 7 days by IND-enabling study; design: species or system Macaca mulatta; settings: rhesus monkey, in vivo, 168 h; time 7 day
[28] = Toxicity in monkey assessed as optic nerve swelling measured after 28 days by IND-enabling study; design: species or system Macaca mulatta; settings: rhesus monkey, in vivo, 672 h; time 28 day
[29] = target: Voltage-gated inwardly rectifying potassium channel KCNH2 (Homo sapiens, UniProt Q12809)
Sequence of Voltage-gated inwardly rectifying potassium channel KCNH2 (Q12809 whole entry): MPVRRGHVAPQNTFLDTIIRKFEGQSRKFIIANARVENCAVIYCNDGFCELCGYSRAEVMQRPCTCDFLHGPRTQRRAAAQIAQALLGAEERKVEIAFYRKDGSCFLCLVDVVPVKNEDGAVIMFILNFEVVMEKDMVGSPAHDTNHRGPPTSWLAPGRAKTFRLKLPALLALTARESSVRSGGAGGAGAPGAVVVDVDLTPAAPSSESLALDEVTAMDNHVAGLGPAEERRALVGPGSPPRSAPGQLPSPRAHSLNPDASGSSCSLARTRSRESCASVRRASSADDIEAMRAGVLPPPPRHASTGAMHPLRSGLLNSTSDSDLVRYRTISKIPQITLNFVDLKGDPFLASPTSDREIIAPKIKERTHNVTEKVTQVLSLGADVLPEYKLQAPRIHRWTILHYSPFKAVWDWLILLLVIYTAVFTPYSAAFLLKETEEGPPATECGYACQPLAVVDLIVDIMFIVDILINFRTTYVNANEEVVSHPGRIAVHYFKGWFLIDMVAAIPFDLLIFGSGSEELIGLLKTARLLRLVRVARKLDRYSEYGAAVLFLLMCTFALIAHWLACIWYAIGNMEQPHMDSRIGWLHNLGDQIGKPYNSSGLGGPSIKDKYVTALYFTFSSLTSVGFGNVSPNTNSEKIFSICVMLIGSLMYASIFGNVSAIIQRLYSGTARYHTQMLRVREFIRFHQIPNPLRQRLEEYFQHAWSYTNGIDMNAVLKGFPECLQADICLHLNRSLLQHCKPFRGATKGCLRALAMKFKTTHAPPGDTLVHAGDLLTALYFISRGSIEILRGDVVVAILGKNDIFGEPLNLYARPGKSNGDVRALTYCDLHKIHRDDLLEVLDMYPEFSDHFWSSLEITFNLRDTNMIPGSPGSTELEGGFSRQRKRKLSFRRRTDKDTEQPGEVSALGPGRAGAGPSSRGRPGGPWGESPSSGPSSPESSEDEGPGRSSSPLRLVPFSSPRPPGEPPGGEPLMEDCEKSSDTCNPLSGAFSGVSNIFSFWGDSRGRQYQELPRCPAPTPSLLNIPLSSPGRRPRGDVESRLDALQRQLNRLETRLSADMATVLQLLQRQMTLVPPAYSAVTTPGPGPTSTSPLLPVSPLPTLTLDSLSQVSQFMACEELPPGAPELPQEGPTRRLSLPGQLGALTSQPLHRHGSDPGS
Description: Inhibition of hERG expressed in CHO cells at -80 mV holding potential by QPatch automated electrophysiology assay

Sequence of Cytochrome P450 2C19 (P33261 whole entry): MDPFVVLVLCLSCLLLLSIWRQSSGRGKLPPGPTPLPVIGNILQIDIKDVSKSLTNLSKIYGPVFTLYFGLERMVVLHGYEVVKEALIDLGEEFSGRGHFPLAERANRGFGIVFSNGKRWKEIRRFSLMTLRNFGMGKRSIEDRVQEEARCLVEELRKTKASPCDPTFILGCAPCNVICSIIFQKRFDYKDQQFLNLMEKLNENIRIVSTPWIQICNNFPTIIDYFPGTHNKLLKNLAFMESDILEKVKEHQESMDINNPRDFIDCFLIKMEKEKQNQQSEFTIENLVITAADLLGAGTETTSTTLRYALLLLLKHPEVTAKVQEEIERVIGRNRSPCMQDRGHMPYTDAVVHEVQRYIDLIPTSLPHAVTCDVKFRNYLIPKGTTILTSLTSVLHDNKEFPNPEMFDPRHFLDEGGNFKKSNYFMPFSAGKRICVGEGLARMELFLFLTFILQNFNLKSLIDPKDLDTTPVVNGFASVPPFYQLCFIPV
Sequence of Cytochrome P450 2D6 (P10635 whole entry): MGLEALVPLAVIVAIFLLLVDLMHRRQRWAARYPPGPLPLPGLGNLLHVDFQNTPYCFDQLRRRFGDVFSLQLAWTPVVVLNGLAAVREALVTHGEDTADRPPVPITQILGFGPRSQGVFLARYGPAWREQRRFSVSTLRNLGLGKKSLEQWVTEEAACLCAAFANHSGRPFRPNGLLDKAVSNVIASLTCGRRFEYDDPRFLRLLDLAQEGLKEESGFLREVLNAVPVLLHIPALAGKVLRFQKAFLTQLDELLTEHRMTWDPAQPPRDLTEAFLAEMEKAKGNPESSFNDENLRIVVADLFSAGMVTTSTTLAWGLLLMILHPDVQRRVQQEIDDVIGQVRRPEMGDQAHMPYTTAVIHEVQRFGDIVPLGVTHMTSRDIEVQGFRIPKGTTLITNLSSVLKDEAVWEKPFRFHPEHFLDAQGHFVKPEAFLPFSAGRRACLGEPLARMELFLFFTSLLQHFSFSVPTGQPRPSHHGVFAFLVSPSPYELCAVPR

- pIC50 [1]: 6.97
- CLint scaled at 1 µM [2]: 16 mL/min/kg
- Kp uu at 24 h [3]: 0.92
- half-life [4]: 13 h
- Cmax [5]: 6400 nM
- AUClast [6]: 111 µM·h
- solubility thermodynamic at 1 h [7]: 152 µM (≈ 64.8 µg/mL)
- solubility thermodynamic at 1 h [8]: 38 µM (≈ 16.2 µg/mL)
- Papp A→B at 1.5 h, 5 µM [9]: 38 ×10⁻⁶ cm/s
- Papp A→B at 1.5 h, 5 µM [10]: 43 ×10⁻⁶ cm/s
- Papp B→A at 1.5 h, 5 µM [11]: 43 ×10⁻⁶ cm/s
- pIC50 (Cytochrome P450 2D6): < 5.00
- pIC50 (Cytochrome P450 2C19): < 5.00
- CLint scaled at 1 µM [12]: 11 mL/min/kg
- CLint scaled at 2 µM [13]: 23 mL/min/kg
- CLint scaled at 2 µM [14]: 11 mL/min/kg
- fraction unbound at 5 h, 5 µM [15]: 0.075
- fraction unbound at 5 h, 5 µM [16]: 0.118
- fraction unbound at 5 h, 5 µM [17]: 0.053
- fraction unbound at 5 h [18]: 0.039
- Vdss [19]: 5.6 L/kg
- half-life [20]: 12 h
- bioavailability [21]: > 100%
- Cmax [22]: 1200 nM
- AUC(0-t) at 24 h [23]: 15.3 µM·h
- bioavailability [24]: > 100%
- Cmax [25]: 350 nM
Compound: Nc1ncc(-c2cn(C34CC(F)(C3)C4)c([C@@H](O)C(F)(F)F)n2)cc1OC(F)(F)F
- Activity [26]: Non-Toxic
- Activity [27]: Non-Toxic
- Activity [28]: Toxic
- pIC50 [29]: < 4.52

From ChEMBL document CHEMBL5331140, “Discovery of IACS-52825, a Potent and Selective DLK Inhibitor for Treatment of Chemotherapy-Induced Peripheral Neuropathy” (J Med Chem, 2023)
